In patent publication US20060252800A1, “Anti-leishmania agent” (priority 2003, published 2006):

How the values were obtained:
Leishmania (L. major) = test: Leishmania protozoa proliferation inhibition assay; type: cell-based; conditions: for OD level (number of viable Leishmania protozoa): Table 2, 48 hours at 27° C., absorbance 450 nm minus 630 nm

CCCC[n+]1ccccc1/C=c1\s/c(=C2/Sc3ccccc3N2C)c(=O)n1CC.[I-] [I (c), 1-butyl-2-[3-ethyl-{5-(3-methyl-2(3H)-benzothiazolylidene)-4-oxo-2-thiazolidinylidene}methyl]pyridinium=iodide]
OD level (number of viable Leishmania protozoa) (Leishmania (L. major); sample concentration 0.0001 mg/ml): 0.365 | OD level (number of viable Leishmania protozoa) (Leishmania (L. major); sample concentration 0.0007 mg/ml): 0.360 | OD level (number of viable Leishmania protozoa) (Leishmania (L. major); sample concentration 0.002 mg/ml): 0.394 | OD level (number of viable Leishmania protozoa) (Leishmania (L. major); sample concentration 0.008 mg/ml): 0.407 | OD level (number of viable Leishmania protozoa) (Leishmania (L. major); sample concentration 0.025 mg/ml): 0.317 | OD level (number of viable Leishmania protozoa) (Leishmania (L. major); sample concentration 0.084 mg/ml): 0.117 | OD level (number of viable Leishmania protozoa) (Leishmania (L. major); sample concentration 0.279 mg/ml): 0.042 | OD level (number of viable Leishmania protozoa) (Leishmania (L. major); sample concentration 0.93 mg/ml): 0.029 | OD level (number of viable Leishmania protozoa) (Leishmania (L. major); sample concentration 3.1 mg/ml): 0.031 | OD level (number of viable Leishmania protozoa) (Leishmania (L. major); sample concentration 2E−04 mg/ml): 0.350 | IC50 (Leishmania (L. major); calculated from the graphs of FIGS. 1 to 4 (concentration vs number of viable leishmania protozoa), read-out: Concentration inhibiting 50% leishmania proliferation): 1000 nM | melting point: 237 to 242 °C
